From ChEMBL document CHEMBL5303573, “Mapping human microbiome drug metabolism by gut bacteria and their genes” (Nature, 2019)

Tests used:
[1] = bacteroides thetaiotaomicron, 12 h, 2 µM
Description: The drug is tested on Bacteroides thetaiotaomicron strain: 3731 for biotransformation. The drug concentrations were measured before and after a 12-h incubation by liquid-chromatography-coupled mass spectrometry (LC–MS)

[2] = The drug is tested on Clostridium ramosum strain: DSM1402 for biotransformation. The drug concentrations were measured before and after a 12-h incubation by liquid-chromatography-coupled mass spectrometry (LC–MS); settings: thomasclavelia ramosa, 2 µM
[3] = akkermansia muciniphila, 12 h, 2 µM
Description: The drug is tested on Akkermansia muciniphila strain: ATCC BAA-835 for biotransformation. The drug concentrations were measured before and after a 12-h incubation by liquid-chromatography-coupled mass spectrometry (LC–MS)

[4] = The drug is tested on Bacteroides pectinophilus strain: ATCC43243 for biotransformation. The drug concentrations were measured before and after a 12-h incubation by liquid-chromatography-coupled mass spectrometry (LC–MS); settings: 2 µM
[5] = The drug is tested on Alistipes indistinctus strain: DSM22520 for biotransformation. The drug concentrations were measured before and after a 12-h incubation by liquid-chromatography-coupled mass spectrometry (LC–MS); settings: 2 µM
[6] = The drug is tested on Blautia hansenii strain: DSM20583 for biotransformation. The drug concentrations were measured before and after a 12-h incubation by liquid-chromatography-coupled mass spectrometry (LC–MS); settings: 2 µM
[7] = The drug is tested on Subdoligranulum variabile strain: DSM15176 for biotransformation. The drug concentrations were measured before and after a 12-h incubation by liquid-chromatography-coupled mass spectrometry (LC–MS); settings: 2 µM
[8] = bacteroides fragilis, 12 h, 2 µM
Description: The drug is tested on Bacteroides fragilis strain: 3397 (T10) for biotransformation. The drug concentrations were measured before and after a 12-h incubation by liquid-chromatography-coupled mass spectrometry (LC–MS)

[9] = enterocloster bolteae, 12 h, 2 µM
Description: The drug is tested on Clostridium bolteae strain: ATCCBAA-613 for biotransformation. The drug concentrations were measured before and after a 12-h incubation by liquid-chromatography-coupled mass spectrometry (LC–MS)

[10] = The drug is tested on Bacteroides finegoldii strain: DSM17565 for biotransformation. The drug concentrations were measured before and after a 12-h incubation by liquid-chromatography-coupled mass spectrometry (LC–MS); settings: 2 µM
[11] = The drug is tested on Clostridium sporogenes strain: ATCC15579 for biotransformation. The drug concentrations were measured before and after a 12-h incubation by liquid-chromatography-coupled mass spectrometry (LC–MS); settings: 2 µM
[12] = The drug is tested on Eubacterium ventriosum strain: ATCC27560 for biotransformation. The drug concentrations were measured before and after a 12-h incubation by liquid-chromatography-coupled mass spectrometry (LC–MS); assay type: ADME; design: dose 2 uM, timepoint 0 vs 12 hours; settings: 2 µM
[13] = The drug is tested on Bacteroides xylanisolvens strain: DSM18836 for biotransformation. The drug concentrations were measured before and after a 12-h incubation by liquid-chromatography-coupled mass spectrometry (LC–MS); settings: 2 µM
[14] = The drug is tested on Bacteroides fragilis strain: ATCC43859 for biotransformation. The drug concentrations were measured before and after a 12-h incubation by liquid-chromatography-coupled mass spectrometry (LC–MS); settings: 2 µM
[15] = The drug is tested on Blautia luti strain: DSM14534 for biotransformation. The drug concentrations were measured before and after a 12-h incubation by liquid-chromatography-coupled mass spectrometry (LC–MS); assay type: ADME; design: dose 2 uM, timepoint 0 vs 12 hours; settings: 2 µM
[16] = The drug is tested on Providencia stuartii strain: ATCC25827 for biotransformation. The drug concentrations were measured before and after a 12-h incubation by liquid-chromatography-coupled mass spectrometry (LC–MS); settings: 2 µM
[17] = The drug is tested on Coprococcus comes strain: ATCC27758 for biotransformation. The drug concentrations were measured before and after a 12-h incubation by liquid-chromatography-coupled mass spectrometry (LC–MS); assay type: ADME; design: dose 2 uM, timepoint 0 vs 12 hours; settings: 2 µM
[18] = bacteroides thetaiotaomicron, 12 h, 2 µM; remark: listed apart in the source
Description: The drug is tested on Bacteroides thetaiotaomicron strain: 7330 for biotransformation. The drug concentrations were measured before and after a 12-h incubation by liquid-chromatography-coupled mass spectrometry (LC–MS)

[19] = segatella copri, 12 h, 2 µM
Description: The drug is tested on Prevotella copri strain: DSM18205 for biotransformation. The drug concentrations were measured before and after a 12-h incubation by liquid-chromatography-coupled mass spectrometry (LC–MS)

[20] = The drug is tested on Collinsella intestinalis strain: DSM13280 for biotransformation. The drug concentrations were measured before and after a 12-h incubation by liquid-chromatography-coupled mass spectrometry (LC–MS); settings: 2 µM

SMILES	Bacterial Biotransformation [1]	Bacterial Biotransformation [2]	Bacterial Biotransformation [3]	Bacterial Biotransformation [4]	Bacterial Biotransformation [5]	Bacterial Biotransformation [6]	Bacterial Biotransformation [7]	Bacterial Biotransformation [8]	Bacterial Biotransformation [9]	Bacterial Biotransformation [10]	Bacterial Biotransformation [11]	Bacterial Biotransformation [12]	Bacterial Biotransformation [13]	Bacterial Biotransformation [14]	Bacterial Biotransformation [15]	Bacterial Biotransformation [16]	Bacterial Biotransformation [17]	Bacterial Biotransformation [18]	Bacterial Biotransformation [19]	Bacterial Biotransformation [20]
C[C@]12C=CC(=O)C=C1CC[C@@H]1[C@@H]2C(=O)C[C@@]2(C)[C@H]1CC[C@]2(O)C(=O)CO [PREDNISONE]	Compound NOT metabolized	Compound NOT metabolized	Compound NOT metabolized	Compound NOT metabolized	Compound NOT metabolized	Compound NOT metabolized	Compound NOT metabolized	Compound NOT metabolized	Compound NOT metabolized	Compound NOT metabolized	Compound NOT metabolized	Compound NOT metabolized	Compound NOT metabolized	Compound NOT metabolized	Compound NOT metabolized	Compound NOT metabolized	Compound NOT metabolized	Compound NOT metabolized	Compound NOT metabolized	Compound NOT metabolized
C=CC[C@@H]1/C=C(\C)C[C@H](C)C[C@H](OC)[C@H]2O[C@@](O)(C(=O)C(=O)N3CCCC[C@H]3C(=O)O[C@H](/C(C)=C/[C@@H]3CC[C@@H](O)[C@H](OC)C3)[C@H](C)[C@@H](O)CC1=O)[C@H](C)C[C@@H]2OC.O [TACROLIMUS]	Compound NOT metabolized	Compound metabolized	Compound metabolized	Compound NOT metabolized	Compound metabolized	Compound metabolized	Compound metabolized	Compound NOT metabolized	Compound metabolized	Compound metabolized	Compound metabolized	Compound NOT metabolized	Compound metabolized	Compound NOT metabolized	Compound metabolized	Compound NOT metabolized	Compound metabolized	Compound NOT metabolized	Compound NOT metabolized	Compound metabolized
CN(C/C=C/C#CC(C)(C)C)Cc1cccc2ccccc12 [TERBINAFINE]	Compound NOT metabolized	Compound NOT metabolized	Compound NOT metabolized	Compound NOT metabolized	Compound NOT metabolized	Compound NOT metabolized	Compound NOT metabolized	Compound NOT metabolized	Compound NOT metabolized	Compound NOT metabolized	Compound NOT metabolized	Compound NOT metabolized	Compound NOT metabolized	Compound NOT metabolized	Compound NOT metabolized	Compound NOT metabolized	Compound NOT metabolized	Compound NOT metabolized	Compound NOT metabolized	Compound NOT metabolized
CCCCCNC(=N)N/N=C/c1c[nH]c2ccc(OC)cc12.O=C(O)/C=C\C(=O)O [TEGASEROD MALEATE]	Compound NOT metabolized	Compound NOT metabolized	Compound NOT metabolized	Compound NOT metabolized	Compound NOT metabolized	Compound NOT metabolized	Compound NOT metabolized	Compound NOT metabolized	Compound NOT metabolized	Compound NOT metabolized	Compound NOT metabolized	Compound NOT metabolized	Compound NOT metabolized	Compound NOT metabolized	Compound NOT metabolized	Compound NOT metabolized	Compound NOT metabolized	Compound NOT metabolized	Compound NOT metabolized	Compound NOT metabolized
CC1=C(CC(=O)O)c2cc(F)ccc2/C1=C\c1ccc([S+](C)[O-])cc1 (stereo not given)	Compound NOT metabolized	Compound NOT metabolized	Compound NOT metabolized	Compound NOT metabolized	Compound NOT metabolized	Compound NOT metabolized	Compound NOT metabolized	Compound NOT metabolized	Compound NOT metabolized	Compound NOT metabolized	Compound NOT metabolized	Compound NOT metabolized	Compound NOT metabolized	Compound NOT metabolized	Compound NOT metabolized	Compound NOT metabolized	Compound NOT metabolized	Compound NOT metabolized	Compound NOT metabolized	Compound NOT metabolized
O=c1[nH]c2ccccc2n1C1CCN(CCCC(c2ccc(F)cc2)c2ccc(F)cc2)CC1 [PIMOZIDE]	Compound NOT metabolized	Compound NOT metabolized	Compound NOT metabolized	Compound NOT metabolized	Compound NOT metabolized	Compound NOT metabolized	Compound NOT metabolized	Compound NOT metabolized	Compound NOT metabolized	Compound NOT metabolized	Compound NOT metabolized	Compound NOT metabolized	Compound NOT metabolized	Compound NOT metabolized	Compound NOT metabolized	Compound NOT metabolized	Compound NOT metabolized	Compound NOT metabolized	Compound NOT metabolized	Compound NOT metabolized
